Experimental data as given in patent US8163756B2 (priority 2004, dated 2012).

Assays:
Type in all cases: biochemical
B-Raf(V599E) kinase = B-Raf(V599E) kinase (Homo sapiens, UniProt P15056, V600E); assay: B-Raf(V599E) kinase assay B1 (construct 1, MEK1 substrate, coupled spectrophotometric)
Experimental: The test compounds were incubated with the reaction mixtureat 30° C. for 2 h. […] The reaction rate was calculated using the […] time frame. […] IC50 values were calculated from a series of percent inhibition values determined at a range of inhibitor concentrations using software routines as implemented in the GraphPad Prism software package.

[1] = molecular target: phosphorylated p-38-alpha kinase (Homo sapiens, UniProt Q16539); assay: P-38 alpha kinase assay P1 (coupled spectrophotometric, 2 h pre-incubation); conditions: method P1 (2 h pre-incubation); read-out: P-38 Data
Sequence of phosphorylated p-38-alpha kinase (Q16539 1-360 isoform Q16539-2): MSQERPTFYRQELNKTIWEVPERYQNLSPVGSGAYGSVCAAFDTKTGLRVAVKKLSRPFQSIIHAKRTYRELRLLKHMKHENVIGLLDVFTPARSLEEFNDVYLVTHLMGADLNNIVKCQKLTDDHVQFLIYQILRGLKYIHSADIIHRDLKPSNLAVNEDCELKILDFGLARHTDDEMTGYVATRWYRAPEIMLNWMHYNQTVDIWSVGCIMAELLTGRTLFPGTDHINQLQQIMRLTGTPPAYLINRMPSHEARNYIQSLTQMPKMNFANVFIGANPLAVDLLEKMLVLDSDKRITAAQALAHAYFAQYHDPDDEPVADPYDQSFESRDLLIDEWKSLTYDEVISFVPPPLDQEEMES

KDR kinase = KDR kinase (Homo sapiens, UniProt P35968, DEL940-989/E990V); assay: KDR kinase assay K1 (pyruvate kinase/lactate dehydrogenase coupled, spectrophotometric); conditions: Method K1; read-out: KDR Data (IC50)
Sequence of KDR kinase (P35968 with tags, fused parts or gaps DEL940-989/E990V): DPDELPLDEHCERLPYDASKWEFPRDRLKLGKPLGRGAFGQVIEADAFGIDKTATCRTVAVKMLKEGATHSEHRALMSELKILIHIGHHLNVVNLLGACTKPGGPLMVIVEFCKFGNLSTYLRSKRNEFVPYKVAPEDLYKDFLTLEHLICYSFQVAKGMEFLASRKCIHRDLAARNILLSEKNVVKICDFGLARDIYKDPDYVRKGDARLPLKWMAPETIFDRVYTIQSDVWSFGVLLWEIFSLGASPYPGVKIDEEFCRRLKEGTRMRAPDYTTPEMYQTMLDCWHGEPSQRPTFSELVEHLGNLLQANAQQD
Experimental: (§1) IC50 values were calculated from a series of percent inhibition values determined at a range of inhibitor concentrations using software routines as implemented in the GraphPad Prism software package.

Abl kinase = molecular target: T1, Abl kinase (Homo sapiens, UniProt P00519); assay: Abl kinase assay A1 (pyruvate kinase/lactate dehydrogenase coupled, spectrophotometric); conditions: Method A1; read-out: Abl Data (IC50)
T1 sequence (P00519 229-512): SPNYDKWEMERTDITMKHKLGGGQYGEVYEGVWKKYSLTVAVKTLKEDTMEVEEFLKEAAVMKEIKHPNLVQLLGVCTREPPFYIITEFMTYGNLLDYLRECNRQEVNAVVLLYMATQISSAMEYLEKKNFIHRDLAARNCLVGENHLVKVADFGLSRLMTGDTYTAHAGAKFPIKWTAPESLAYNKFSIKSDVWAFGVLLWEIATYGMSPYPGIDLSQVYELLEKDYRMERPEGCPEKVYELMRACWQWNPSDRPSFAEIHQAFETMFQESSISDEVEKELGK
Experimental: as §1

Sequence of B-Raf(V599E) kinase (P15056 with tags, fused parts or gaps V600E): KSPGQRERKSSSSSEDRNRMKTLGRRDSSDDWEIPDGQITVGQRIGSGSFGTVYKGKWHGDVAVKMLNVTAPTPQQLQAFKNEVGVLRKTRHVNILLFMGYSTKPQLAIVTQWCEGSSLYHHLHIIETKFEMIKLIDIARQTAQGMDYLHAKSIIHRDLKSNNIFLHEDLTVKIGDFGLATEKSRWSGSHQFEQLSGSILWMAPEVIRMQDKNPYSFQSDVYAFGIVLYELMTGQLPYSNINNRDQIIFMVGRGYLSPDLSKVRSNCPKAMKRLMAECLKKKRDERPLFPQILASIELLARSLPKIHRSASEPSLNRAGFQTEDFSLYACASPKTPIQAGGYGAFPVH

| SMILES | IC50 (B-Raf(V599E) kinase) | IC50 [1] | IC50 (KDR kinase) | IC50 (Abl kinase) |
| --- | --- | --- | --- | --- |
| CC(C)(C)c1cc(NC(=O)Nc2cccc(Cl)c2Cl)n(-c2cccc(C(=N)N)c2)n1 [Example 44, 1-[3-t-butyl-1-(3-carbamimidoylphenyl)-1H-pyrazol-5-yl]-3-(2,3-dichlorophenyl)urea] | 4 nM | 70 nM | 2400 nM | 440 nM |
| CC(C)(C)c1cc(NC(=O)Nc2cccc(Cl)c2Cl)n(-c2ccc3c(c2)CN[C@H](C(=O)O)C3)n1 [Example 177, (3S)-7-(3-t-butyl-5-(3-(2,3-dichlorophenyl)ureido)-1H-pyrazol-1-yl)-1,2,3,4-tetra-hydroisoquinoline-3-carboxylic acid] | 6.3 nM | 43 nM | 230 nM | 1800 nM |
| CC(C)(C)c1cc(NC(=O)Nc2cccc(Cl)c2Cl)n(-c2cccc(C(N)=O)c2)n1 [Example 13, 1-[3-t-butyl-1-(3-carbamoylphenyl)-1H-pyrazol-5-yl]-3-(2,3-dichlorophenyl)urea] | 5.2 nM | 45 nM | 360 nM | 2000 nM |
| CC(C)(C)c1cc(NC(=O)Nc2cccc(Cl)c2Cl)n(-c2ccc3c(c2)CN(S(C)(=O)=O)CC3)n1 [Example 127, 1-{3-t-butyl-1-[2-(methanesulfonyl)-1,2,3,4-tetrahydroisoquinolin-7-yl]-1H-pyrazol-5-yl}-3-(2,3-dichlorophenyl)urea] | 3.4 nM | 13 nM | 220 nM | 220 nM |
| CC(C)(C)c1cc(NC(=O)Nc2cccc(Cl)c2Cl)n(-c2cccc(CO)c2)n1 [Example 1, 1-[3-t-butyl-1-(3-hydroxymethyl-phenyl)-1H-pyrazol-5-yl]-3-(2,3-dichlorophenyl)urea] | 4.6 nM | 11 nM | 130 nM | 310 nM |
| CC(C)(C)c1cc(NC(=O)Nc2cccc(Cl)c2Cl)n(-c2ccc3c(c2)C[C@@H](C(=O)O)NC3)n1 [Example 186, (3S)-6-(3-t-butyl-5-(3-(2,3-dichlorophenyl)ureido)-1H-pyrazol-1-yl)-1,2,3,4-tetrahydroisoquinoline-3-carboxylic acid] | 9.2 nM | 50 nM | 900 nM | 60 nM |
| CC(=O)N1CCc2ccc(-n3nc(C(C)(C)C)cc3NC(=O)Nc3cccc(Cl)c3Cl)cc2C1 [Example 126, 1-[1-(2-acetyl-1,2,3,4-tetrahydroisoquinolin-7-yl)-3-t-butyl-1H-pyrazol-5-yl]-3-(2,3-dichlorophenyl)urea] | 6.5 nM | 10 nM | 210 nM | 440 nM |
| CC(C)(C)c1cc(NC(=O)Nc2cccc(Cl)c2Cl)n(-c2ccc3c(c2)CCCN3C(=N)N)n1 [Example 136, 1-[3-t-butyl-1-(1-amidino-1,2,3,4-tetrahydroquinolin-6-yl]-1H-pyrazol-5-yl)-3-(2,3-dichlorophenyl)urea] | 4.9 nM | 130 nM | 29 nM | 100 nM |
| CC(C)(C)c1cc(NC(=O)Nc2cccc(Cl)c2Cl)n(-c2cc(CNC(=O)NS(C)(=O)=O)c3ccccc3c2)n1 [Example 75, 1-{3-t-butyl-1-[1-(methanesulfonylureidoamidomethyl)naphthalen-3-yl]-1H-pyrazol-5-yl}-3-(2,3-dichlorophenyl-1-yl)urea] | 4.2 nM | 6 nM | 140 nM | 63 nM |
| CC(C)(C)c1cc(NC(=O)Nc2cccc(Cl)c2Cl)n(-c2ccc3c(c2)CCNCC3)n1 [Example 166, 1-(3-t-butyl-1-(2,3,4,5-tetrahydro-1H-benzo[d]azepin-7-yl)-1 H-pyrazol-5-yl)-3-(2,3-dichlorophenyl)urea] | 5.7 nM | 61 nM | 210 nM | 230 nM |
| CC(C)(C)c1cc(NC(=O)Nc2cccc(Cl)c2Cl)n(-c2cccc(CCC(=O)O)c2)n1 [Example 46, 3-(3-{3-t-Butyl-5-[3-(2,3-dichloro-phenyl)ureido]-1H-pyrazol-1-yl}-phenyl)propionic acid] | 3.3 nM | 6 nM | 170 nM | 2500 nM |
